Structures are written as SMILES.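 A five-concentration, 48-hour dose response in 96-well plates underlies each endpoint, interpolated linearly between surrounding concentrations. GI50: concentration for 50% inhibition of growth. TGI is the concentration that stops growth completely.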

Some test systems named below: A498 renal; A549 NSCLC; K-562 leukemia; MDA-MB-435; OVCAR-5 ovarian; OVCAR-8 ovarian; SF-268 CNS; SK-MEL-2 melanoma; UACC-62 melanoma; EKVX NSCLC.
Experiment in all cases: growth of human tumour cells (NCI), 48 h

With `O=[N+]([O-])c1cccc(C2CC(c3ccccc3)=Nc3ccccc3S2)c1` (configuration not stated), the GI50 was 14.7 µM in the assay with A498 renal; 30.6 µM with A549 NSCLC; 3.76 µM with K-562 leukemia; 15.7 µM with MDA-MB-435; 13.9 µM in the assay with OVCAR-5 ovarian; 15.5 µM in the assay on OVCAR-8 ovarian. Moreover, the values for the GI50 in the assay with SF-268 CNS, in the assay on SK-MEL-2 melanoma and in the assay with UACC-62 melanoma were 13.1 µM, 21 µM and 12.1 µM, respectively. Also, the TGI is 95.8 µM in the assay with A498 renal; > 100 µM in the assay with A549 NSCLC; > 100 µM in the assay with K-562 leukemia; 37.7 µM with MDA-MB-435; 28.1 µM in the assay with OVCAR-5 ovarian; 39.6 µM in the assay with OVCAR-8 ovarian. Also, the TGI in the assay on SF-268 CNS stood at 26.9 µM; in the assay with SK-MEL-2 melanoma, 43.6 µM; in the assay on UACC-62 melanoma it was 44.1 µM.

For the compound `COC(=O)c1ccc(NC(=O)Oc2ccc(N(CCCl)CCCl)cc2)cc1`, the GI50 in the assay with A498 renal is 3.35 µM; with A549 NSCLC it was 1.65 µM; in the assay on K-562 leukemia, 4.85 µM; in the assay on MDA-MB-435 it was 11.5 µM; in the assay on OVCAR-5 ovarian, 30.8 µM; in the assay on OVCAR-8 ovarian, 4.34 µM. In addition, the figures for the GI50 with SF-268 CNS, in the assay with SK-MEL-2 melanoma and with UACC-62 melanoma were 1.94 µM, 20 µM and 3.36 µM, respectively. In addition, the TGI with A498 renal was 14.9 µM; in the assay on A549 NSCLC, > 100 µM; in the assay on K-562 leukemia, > 100 µM; with MDA-MB-435 it was > 100 µM; in the assay with OVCAR-5 ovarian, > 100 µM; in the assay on OVCAR-8 ovarian, 84.6 µM. Besides, the TGI in the assay with SF-268 CNS amounted to 18.5 µM; in the assay on SK-MEL-2 melanoma it was 52.5 µM; in the assay on UACC-62 melanoma it was 23.5 µM.

`COc1ccc(/C(C#N)=C2C=C/C(=N/O)c3ccccc3\2)cc1`: the GI50 is 2.21 µM in the assay with A498 renal; 0.339 µM with A549 NSCLC; 0.105 µM in the assay with K-562 leukemia; 0.0388 µM with MDA-MB-435; 2.96 µM with OVCAR-5 ovarian; 0.327 µM in the assay with OVCAR-8 ovarian. In addition, the GI50 was 0.481 µM in the assay on SF-268 CNS, 0.415 µM in the assay with SK-MEL-2 melanoma and 0.48 µM in the assay with UACC-62 melanoma. The TGI with A498 renal is 6.75 µM; in the assay with A549 NSCLC, 13.4 µM; in the assay with K-562 leukemia it was 14.3 µM; in the assay on MDA-MB-435 it was 0.179 µM; in the assay with OVCAR-5 ovarian, 16.5 µM; with OVCAR-8 ovarian it was 13.1 µM. In addition, the TGI in the assay on SF-268 CNS was determined as 15 µM; in the assay on SK-MEL-2 melanoma, 12.3 µM; in the assay on UACC-62 melanoma, 7.47 µM.

In the case of `COC(=O)[C@H]1CCCN1C(=O)[C@H]1CCCN1C(=O)[C@H](Cc1c[nH]c2ccccc12)NC(=S)Nc1cc(C(F)(F)F)cc(C(F)(F)F)c1`, the GI50 in the assay with A498 renal is 6.54 µM; with A549 NSCLC, 4.08 µM; with K-562 leukemia it was 5.71 µM; with MDA-MB-435, 5.6 µM; in the assay on OVCAR-5 ovarian it was 2.95 µM; with OVCAR-8 ovarian, 7.01 µM. Also, the GI50 is 8.2 µM with SF-268 CNS, 5.34 µM with SK-MEL-2 melanoma and 6.14 µM with UACC-62 melanoma. The TGI was > 100 µM in the assay on A498 renal; > 100 µM in the assay with A549 NSCLC; > 100 µM with K-562 leukemia; > 100 µM in the assay on MDA-MB-435; 26.8 µM in the assay on OVCAR-5 ovarian; > 100 µM in the assay with OVCAR-8 ovarian. The TGI is > 100 µM in the assay on SF-268 CNS, 27.8 µM in the assay on SK-MEL-2 melanoma and > 100 µM in the assay on UACC-62 melanoma.

With `CC(=O)NC(CC(C)C)C(=O)NC(Cc1ccccc1)C(=S)N1CCCC1` (configuration not stated), the TGI in the assay on A498 renal, in the assay on A549 NSCLC, with EKVX NSCLC, with K-562 leukemia, in the assay on OVCAR-5 ovarian and in the assay on OVCAR-8 ovarian was > 100 µM in each case. The TGI in the assay with SF-268 CNS, in the assay with SK-MEL-2 melanoma and in the assay with UACC-62 melanoma was > 100 µM in each case.

On to `CC(=O)OC1COC(n2c(=S)n(-c3ccccc3)c(=O)c3ccccc32)C(OC(C)=O)C1OC(C)=O` (configuration not stated), for which the TGI with A498 renal, in the assay with A549 NSCLC, in the assay on EKVX NSCLC, in the assay with K-562 leukemia, in the assay with OVCAR-5 ovarian and in the assay with OVCAR-8 ovarian was > 100 µM throughout. The TGI in the assay on SF-268 CNS, in the assay on SK-MEL-2 melanoma and in the assay with UACC-62 melanoma was > 100 µM throughout.

Consider `COc1cc2c(=O)[nH]c3cc([N+](=O)[O-])ccc3c2cc1[N+](=O)[O-]`, for which the GI50 was 2.46 µM in the assay on A498 renal; 4.11 µM with A549 NSCLC; 7.08 µM with EKVX NSCLC; 5.97 µM in the assay on K-562 leukemia; 63.4 µM in the assay with OVCAR-5 ovarian; 3.3 µM with OVCAR-8 ovarian. Further, the GI50 in the assay on SF-268 CNS was 4.42 µM; with SK-MEL-2 melanoma, 22.9 µM; in the assay on UACC-62 melanoma, 4.55 µM. Besides, the TGI with A498 renal is > 100 µM; in the assay with A549 NSCLC, > 100 µM; in the assay on EKVX NSCLC, > 100 µM; in the assay on K-562 leukemia, > 100 µM; in the assay on OVCAR-5 ovarian, > 100 µM; in the assay with OVCAR-8 ovarian, 88.1 µM. In addition, the TGI in the assay with SF-268 CNS was 88 µM; with SK-MEL-2 melanoma, > 100 µM; in the assay on UACC-62 melanoma, > 100 µM.

Take `O=C(NNc1ccccc1)/C(=C/c1ccc2c(c1)OCO2)NC(=O)c1ccccc1`: the TGI in the assay on A498 renal, in the assay with A549 NSCLC, with EKVX NSCLC, with K-562 leukemia, in the assay on OVCAR-5 ovarian and in the assay on OVCAR-8 ovarian was > 100 µM each time. For the same compound, the TGI with SF-268 CNS, in the assay with SK-MEL-2 melanoma and in the assay with UACC-62 melanoma was > 100 µM throughout.

Values taken from PubChem BioAssay (NCI).
